In the NIST ThermoML archive (doi:10.1016/j.fluid.2018.07.012):

Details: Fluid (supercritical or subcritical phases), Dynamic light scattering

O=C=O [carbon dioxide]
Details	thermal diffusivity [m2/s]
293.55 K, 10990 kPa	4.54e-08
295.33 K, 8060 kPa	3.64e-08
295.4 K, 10050 kPa	4.04e-08
297.27 K, 7520 kPa	2.9e-08
297.45 K, 7000 kPa	2.67e-08
302.29 K, 11020 kPa	3.74e-08
302.43 K, 8030 kPa	2.25e-08
302.5 K, 8980 kPa	2.81e-08
303.34 K, 10000 kPa	3.28e-08
305.32 K, 7050 kPa	3.23e-08
305.77 K, 7510 kPa	1.22e-08
307 K, 8060 kPa	8.8e-09
307.3 K, 9050 kPa	2.14e-08
307.42 K, 10540 kPa	2.76e-08
312.35 K, 8020 kPa	2.68e-08
312.44 K, 9010 kPa	9.3e-09
313.93 K, 10020 kPa	1.71e-08
314.2 K, 11020 kPa	2.66e-08
316.1 K, 7000 kPa	6.47e-08
316.65 K, 7490 kPa	5.72e-08
317.11 K, 9010 kPa	1.99e-08
317.19 K, 10190 kPa	1.4e-08
317.56 K, 8000 kPa	4.32e-08
322.67 K, 10290 kPa	2.13e-08
323.48 K, 11000 kPa	1.97e-08
324.73 K, 9080 kPa	4.26e-08
324.99 K, 8160 kPa	6.12e-08
326.51 K, 7010 kPa	8.98e-08
326.93 K, 7480 kPa	7.92e-08
328.26 K, 11000 kPa	2.63e-08
333.11 K, 11010 kPa	3.22e-08
333.51 K, 9020 kPa	6e-08
333.97 K, 8140 kPa	8.06e-08
334.01 K, 10320 kPa	4.36e-08
336.92 K, 7000 kPa	1.08e-07
337.46 K, 7510 kPa	1.02e-07
343.12 K, 8000 kPa	9.67e-08
343.7 K, 9050 kPa	7.77e-08
343.72 K, 10060 kPa	6.38e-08
343.95 K, 10970 kPa	5.2e-08
345.99 K, 11010 kPa	5.38e-08
346.99 K, 7020 kPa	1.31e-07
347.28 K, 7500 kPa	1.17e-07
353.14 K, 10270 kPa	7.34e-08
353.95 K, 9020 kPa	9.9e-08
354.57 K, 8000 kPa	1.15e-07
356.06 K, 11030 kPa	7.11e-08
357.15 K, 7030 kPa	1.46e-07
357.37 K, 7500 kPa	1.37e-07
363.07 K, 10000 kPa	8.99e-08
363.43 K, 9020 kPa	1.07e-07
364.02 K, 8020 kPa	1.31e-07
365.89 K, 11050 kPa	8.37e-08
367.01 K, 7010 kPa	1.62e-07
367.19 K, 7600 kPa	1.54e-07
373.34 K, 10090 kPa	1.04e-07
373.59 K, 9010 kPa	1.24e-07
374.62 K, 8010 kPa	1.49e-07
375.92 K, 11040 kPa	9.69e-08
377.05 K, 7040 kPa	1.82e-07
377.25 K, 7480 kPa	1.75e-07
382.51 K, 10040 kPa	1.23e-07
383.53 K, 8040 kPa	1.66e-07
383.71 K, 9020 kPa	1.41e-07
385.64 K, 10990 kPa	1.15e-07
386.8 K, 7480 kPa	1.87e-07
386.82 K, 7010 kPa	2.09e-07
392.06 K, 10550 kPa	1.32e-07
393.82 K, 9040 kPa	1.57e-07
394.36 K, 7960 kPa	1.89e-07
395.37 K, 11030 kPa	1.23e-07
396.68 K, 7010 kPa	2.2e-07
396.85 K, 7490 kPa	2.04e-07
402.64 K, 10200 kPa	1.45e-07
403.05 K, 9020 kPa	1.66e-07
403.62 K, 8070 kPa	1.98e-07
405.15 K, 11090 kPa	1.3e-07
406.44 K, 7020 kPa	2.38e-07
406.5 K, 7500 kPa	2.2e-07
